From patent US20180271996A1, “COMBINATION THERAPIES OF HER2-TARGETED ANTIBODY-DRUG CONJUGATES” (Mersana Therapeutics, Inc., priority 2017, published 2018)
Non-standard residues stand in square brackets, D forms with d. Residues, ends and D or L forms follow the SMILES beside them. *: point of attachment. Dolaproine = CO[C@@H]([C@@H]1CCCN1)[C@@H](C)C(=O)O; Dil = CC[C@H](C)[C@H](NC)[C@@H](CC(=O)O)OC; NMe2Val = CC(C)[C@@H](C(=O)*)N(C)C; NH(3-hydroxypropyl) = OCCCN*

Assays:
human HER2 = human HER2 (Homo sapiens, UniProt P04626); assay: Inhibition of HER2 functional activity in vitro
Description: The HER2 antibodies disclosed herein serve to modulate, block, inhibit, reduce, antagonize, neutralize or otherwise interfere with the functional activity of HER2. HER2. Functional activities of HER2 include for example, modulation of PI3K-Akt pathway activity. […] PI3K-Akt pathway activity is assessed using any art-recognized method for detecting PI3K-Akt pathway activity, including, but not limited to detecting levels of phosphorylated Akt in the presence and absence of an antibody or antigen binding fragment disclosed herein.
The HER2 antibodies are considered to completely modulate, block, inhibit, reduce, antagonize, neutralize or otherwise interfere with HER2 functional activity when the level of HER2 functional activity in the presence of the HER2 antibody is decreased by at least 95%, e.g., by 96%, 97%, 98%, 99% or 100% as compared to the level of HER2 functional activity in the absence of binding with a HER2 antibody described herein. The HER2 antibodies are considered to partially modulate, block, inhibit, reduce, antagonize, neutralize or otherwise interfere with HER2 functional activity when the level of HER2 activity in the presence of the HER2 antibody is decreased by less than 95%, e.g., 10%, 20%, 25%, 30%, 40%, 50%, 60%, 75%, 80%, 85% or 90% as compared to the level of HER2 activity in the absence of binding with a HER2 antibody described herein.

SKBR3 [1] = assay: ATP release from cells (ENLITEN ATP Assay), SKBR3; type: cell-based; conditions: AF-HPA or XMT-1519 conjugate at 0.5 μM, 24 h, mitoxantrone positive control, compared to untreated (control) cells, FIG. 2
Description: (§1) Cancer cells undergoing apoptosis in response to specific anticancer therapies are immunogenic (also known as immunogenic cell death (ICD)), as long as they emit precise DAMPs in a spatiotemporally defined fashion. […] Mitoxantrone, a known strong inducer of ICD and ATP release, was used as a positive control. Briefly, two HER2 expressing cell lines, JIMT-1 (cat. # ACC589, DSMZ Cell Collection) and SKBR3 (cat # ATCC® HTB 30™, American Tissue Culture Collection) were seeded at a density of 7500 cells per well in 24 wells plate, allowed to grow for 24 h, and then treated with AF-HPA or XMT-1519 conjugate at 0.5 μM in 100 μl in […] (Cat#11875-119, Thermo Fisher Scientific) for 24 h. The cells were then pelleted by centrifugation and ATP release was measured using ENLITEN® ATP Assay System (Promega) according to manufacturer's instructions.

JIMT-1 = assay: ATP release from cells (ENLITEN ATP Assay), JIMT-1; type: cell-based, human; conditions: AF-HPA or XMT-1519 conjugate at 0.5 μM, 24 h, mitoxantrone positive control, compared to untreated (control) cells, FIG. 2
Description: as §1

NCI-N87 cells = assay: Calreticulin exposure on cell membrane (flow cytometry), NCI-N87; type: cell-based, human; conditions: 2.5 h at 37° C
Description: (§2) High HER2-expressing cell lines, NCI-N87 (800,000 HER2 receptors), SKBR3 (700,000 HER2 receptors) and low HER2 expressing cell line HT-29 (16,000 HER2 receptors) were re-suspended at a density of 2×10^6 cells/mL in 100 μl PBS containing 2% FBS. Cells in 96 well plate (Corning® 96 Well Clear Round Bottom Polypropylene Not Treated Microplate cat#3879) were treated with XMT-1519 conjugate or AF-HPA at 1 μM or with mitoxantrone, a strong calreticulin exposure inducer, at 0.01 to 1 μM for 2.5 h at 37° C. Cells were then incubated with anti-calreticulin antibody (clone 16B11.1 Cat: MABT217, Millipore Sigma, 1:200) in ice cold PBS containing 2% FBS for 1 h on ice, washed twice with cold PBS containing 2% and then incubated for 20 min on ice with a secondary antibody (Alexa 647-anti Mouse IgG (H+L) 1:800, Thermo Fisher Scientific Cat#:A32728) in ice cold PBS containing 2% FBS. Thereafter the cells were stained with Annexin V (Pacific Blue™ cat# A35122, Thermo Fisher Scientific) according to manufacturer's instructions to identify apoptotic cell population. Necrotic cell population was labeled by propidium iodide (cat# P3566 Thermo Fisher Scientific) at 1:1000 dilution. Cells were then analyzed by flow cytometry using MACSQuant® Analyzer 10. Apoptotic and necrotic cell populations were excluded and only live cells for measured for calreticulin exposure.

[2] = test system: TumorGraft™ model of non-small cell lung carcinoma (CTG-0860); assay: Antitumor activity in low passage TumorGraft model of non-small cell lung carcinoma in humanized mice (CTG-0860); type: in vivo; conditions: per Table 1: XMT-1519 conjugate 1.0 mg/kg IV q7dx3; pembrolizumab 2.5 mg/kg IP q5dx6; n=5 per group; FIG. 1
Description: Unmatched human leukocyte antigen (HLA) humanized CD34+ engrafted immune compromised female mice (Taconic NOG) were subcutaneously implanted unilaterally on the left flank with tumor fragments (n=5 for each group and two additional mice for tumor infiltration lymphocytes measurement for the test compounds only). […] Tumor size was measured at the times indicated in FIG. 1 using digital calipers. Tumor volume was calculated and was used to determine the tumor growth inhibition. Control mice were sacrificed when tumors reached a size of 1500 mm^3. Tumor volumes are reported as the mean±SEM for each group.
When tumors reached a size of 1500 mm^3 in control mice, they were sacrificed as well as two mice from each treatment groups, and tumor infiltration lymphocytes were analyzed. At the study endpoint (day 49) all the surviving mice were sacrificed and tumor infiltration lymphocytes were analyzed. Tumors were dissociated and analyzed for tumor infiltrating lymphocytes by flow cytometry for the following markers: human CD45 infiltrating lymphocytes, hCD3 (T cells), hCD4 (helper T cells), hCD8 (cytotoxic T cells), hCD19 (B cells), T cells activation and proliferation—hCD25.

[3] = test system: 4T1-7bb7 cells (human HER2-expressing mouse 4T1 breast cancer); assay: Tumor response in 4T1-7bb7 syngeneic mouse model (Example 5); type: in vivo, Balb/c mice; conditions: per Table 2: XMT-1519 conjugate 4.0 mg/kg IV qwx2; Kadcyla 15.0 mg/kg IV qwx2; anti-PD1 mAb 10.0 mg/kg IP days 0, 2, 4, 7, 10; n=13; FIG. 5
Description: Tumor growth inhibition (% TGI) was defined as the percent difference in median tumor volumes (MTVs) between treated and control groups.
Treatment efficacy was determined from the incidence and magnitude of regression responses of the tumor size observed during the study. Treatment may cause partial regression (PR) or complete regression (CR) of the tumor in an animal. In a PR response, the tumor volume was 50% or less of its Day 1 volume for three consecutive measurements during the course of the study, and equal to or greater than 13.5 mm^3 for one or more of these three measurements. In a CR response, the tumor volume was less than 13.5 mm^3 for three consecutive measurements during the course of the study. An animal with a CR response at the termination of a study was additionally classified as a tumor-free survivor (TFS). Animals were monitored for regression responses.
Six to eight week old female, Balb/c mice (Jackson Labs, Bar Harbor, Me.) were subcutaneously implanted unilaterally on the left flank with 4×10^4/mouse 4T1-7bb7 cells (n=13 mice/group). […] Tumor sizes were measured twice a week using digital calipers, and average tumor volume was calculated to determine tumor growth inhibition. […]

SKBR3 [4] = assay: Calreticulin exposure on cell membrane (flow cytometry), SKBR3; type: cell-based; conditions: SKBR3 (700,000 HER2 receptors); 1 μM, 2.5 h at 37° C; FIG. 3
Description: as §2

HT-29 = assay: Calreticulin exposure on cell membrane (flow cytometry), HT-29; type: cell-based; conditions: HT-29 (16,000 HER2 receptors, low HER2); 1 μM, 2.5 h at 37° C; FIG. 3
Description: as §2

[5] = NCI-N87 (800,000 HER2 receptors), 1 μM, live cells only, FIG. 3

Row | Compound | functional activity of HER2 (human HER2) | ATP release (SKBR3 [1]) | ATP release (JIMT-1) | calreticulin exposure on cell membrane (NCI-N87 cells; [5]) | calreticulin exposure on cell membrane (NCI-N87 cells; NCI-N87, mitoxantrone at 0.01 to 1 μM, FIG. 3 panel (a)) | tumor response (tumor volume / tumor growth inhibition) [2] | tumor response (tumor growth inhibition / anti-tumor efficacy) [3] | calreticulin exposure on cell membrane (SKBR3 [4]) | calreticulin exposure on cell membrane (HT-29)
1 | XMT 1519: fully human HER2 monoclonal antibody, heavy chain SEQ ID NO: 5, light chain SEQ ID NO: 6 | inhibit the functional activity of HER2 in vitro | – | – | – | – | – | – | – | –
2 | CC[C@H](C)[C@@H]([C@@H](CC(=O)N1CCC[C@H]1[C@H](OC)[C@@H](C)C(=O)N[C@@H](Cc1ccccc1)C(=O)NCCCO)OC)N(C)C(=O)[C@@H](NC(=O)[C@H](C(C)C)N(C)C)C(C)C [AF-HPA, Auristatin F-hydroxypropyl amide] (NMe2Val-V[Dil][Dolaproine]F-{NH(3-hydroxypropyl)}) | – | ATP was released | ATP was released | induced calreticulin exposure | – | – | – | – | –
3 | O=C1c2c(O)ccc(O)c2C(=O)c2c(NCCNCCO)ccc(NCCNCCO)c21 [mitoxantrone, reference compound] | – | ATP was released | ATP was released | – | dose dependent calreticulin exposure | – | – | – | –
4 | XMT 1519-(EG2-MI-(7.7 kDa PHF-BA-(AF-HPA-Ala))) [XMT-1519 conjugate] | – | ATP was released | ATP was released | induced calreticulin exposure | – | decrease in tumor volume | significant inhibition of tumor growth | induced calreticulin exposure | induced calreticulin exposure
